Columns and labels:
Vibrio cholerae = assay: Antibacterial activity against Vibrio cholerae assessed as percent susceptible isolates by broth microdilution method; type: functional
Escherichia coli [1] = assay: Antibacterial activity against Escherichia coli assessed as percent susceptible isolates by broth microdilution method; type: functional
Salmonella typhi = assay: Antibacterial activity against Salmonella enterica serovar Typhi by broth microdilution method; type: functional, Salmonella enterica subsp. enterica serovar Typhi
Salmonella sp. [2] = assay: Antibacterial activity against Salmonella sp. assessed as growth inhibition at =<0.002 ug/ml by broth microdilution method; type: functional
Escherichia coli [3] = assay: microbe, parasite or virus in culture; type: functional
Plesiomonas shigelloides [4] = assay: Antibacterial activity against Plesiomonas shigelloides assessed as growth inhibition at =<0.002 ug/ml by broth microdilution method; type: functional
Escherichia coli [5] = assay: Antibacterial activity against enteropathogenic Escherichia coli assessed as percent resistant isolates by broth microdilution method; type: functional
Shigella dysenteriae [6] = assay: Antibacterial activity against Shigella dysenteriae by broth microdilution method; type: functional
Shigella sp. [7] = assay: Antibacterial activity against Shigella sp. assessed as growth inhibition at 0.12 ug/ml by broth microdilution method; type: functional
Escherichia coli [8] = assay: Antibacterial activity against enteropathogenic Escherichia coli assessed as percent susceptible isolates by broth microdilution method; type: functional
Vibrio sp. [9] = assay: Antibacterial activity against Vibrio sp. assessed as percent susceptible isolates by broth microdilution method; type: functional
Aeromonas sp. [10] = assay: Antibacterial activity against Aeromonas sp. assessed as growth inhibition at 0.008 ug/ml by broth microdilution method; type: functional
Escherichia coli [11] = assay: Antibacterial activity against Escherichia coli by broth microdilution method in presence of sulfamethoxazolee; type: functional
Shigella sonnei = assay: Antibacterial activity against Shigella sonnei assessed as percent resistant isolates by broth microdilution method; type: functional; conditions: pooled result: one value given for 4 cell lines, strains, targets or settings
Aeromonas sp. [12] = assay: Antibacterial activity against Aeromonas sp. assessed as growth inhibition at 0.5 ug/ml by broth microdilution method; type: functional
Shigella sp. [13] = assay: Antibacterial activity against Shigella sp. assessed as growth inhibition at 0.016 ug/ml by broth microdilution method; type: functional
Campylobacter sp. [14] = assay: Antibacterial activity against Campylobacter sp. assessed as growth inhibition at 0.004 ug/ml by broth microdilution method; type: functional
Aeromonas sobria = assay: Antibacterial activity against Aeromonas sobria by broth microdilution method; type: functional
Plesiomonas shigelloides [15] = assay: Antibacterial activity against Plesiomonas shigelloides assessed as percent resistant isolates by broth microdilution method; type: functional
Campylobacter sp. [16] = assay: Antibacterial activity against Campylobacter sp. assessed as growth inhibition at 2 ug/ml by broth microdilution method; type: functional
Campylobacter jejuni [17] = assay: Antibacterial activity against Campylobacter jejuni assessed as percent resistant isolates by broth microdilution method; type: functional; conditions: pooled result: one value given for 2 cell lines, strains, targets or settings
Aeromonas sp. [18] = assay: Antibacterial activity against Aeromonas sp. assessed as growth inhibition at 0.03 ug/ml by broth microdilution method; type: functional
Aeromonas hydrophila = assay: Antibacterial activity against Aeromonas hydrophila assessed as percent resistant isolates by broth microdilution method; type: functional
Vibrio sp. [19] = assay: Antibacterial activity against Vibrio sp. by broth microdilution method; type: functional
Escherichia coli [20] = assay: Antibacterial activity against Escherichia coli assessed as growth inhibition at =>4 ug/ml by broth microdilution method; type: functional
Salmonella sp. [21] = assay: Antibacterial activity against Salmonella sp. assessed as growth inhibition at 0.004 ug/ml by broth microdilution method; type: functional
Salmonella paratyphi = assay: Antibacterial activity against Salmonella enterica serovar Paratyphi by broth microdilution method; type: functional, Salmonella enterica subsp. enterica serovar Paratyphi A
Campylobacter sp. [22] = assay: Antibacterial activity against Campylobacter sp. assessed as growth inhibition at 0.25 ug/ml by broth microdilution method; type: functional
Escherichia coli [23] = assay: Antibacterial activity against blood-borne Escherichia coli by broth microdilution method; type: functional
Vibrio sp. [24] = assay: Antibacterial activity against Vibrio sp. assessed as percent resistant isolates by broth microdilution method; type: functional
Salmonella sp. [25] = assay: Antibacterial activity against Salmonella sp. assessed as growth inhibition at 0.016 ug/ml by broth microdilution method; type: functional
[26] = Antibacterial activity against Salmonella enterica serovar Newport by broth microdilution method; type: functional, Salmonella enterica subsp. enterica serovar Newport
Shigella dysenteriae [27] = assay: Antibacterial activity against Shigella dysenteriae assessed as percent susceptible isolates by broth microdilution method; type: functional
Campylobacter sp. [28] = assay: Antibacterial activity against Campylobacter sp. assessed as growth inhibition at =<0.002 ug/ml by broth microdilution method; type: functional
[29] = Antibacterial activity against Salmonella enterica serovar Heidelberg by broth microdilution method; type: functional, Salmonella enterica subsp. enterica serovar Heidelberg
Escherichia coli [30] = assay: Antibacterial activity against Escherichia coli assessed as growth inhibition at 2 ug/ml by broth microdilution method; type: functional
Shigella sp. [31] = assay: Antibacterial activity against Shigella sp. assessed as growth inhibition at 0.03 ug/ml by broth microdilution method; type: functional
Shigella sp. [32] = assay: Antibacterial activity against Shigella sp. assessed as growth inhibition at 0.008 ug/ml by broth microdilution method; type: functional
Escherichia coli [33] = assay: Antibacterial activity against enterotoxigenic Escherichia coli by broth microdilution method; type: functional
Shigella boydii = assay: Antibacterial activity against Shigella boydii assessed as percent susceptible isolates by broth microdilution method; type: functional; conditions: pooled result: one value given for 3 cell lines, strains, targets or settings
Campylobacter jejuni [34] = assay: Antibacterial activity against Campylobacter jejuni assessed as percent susceptible isolates by broth microdilution method; type: functional; conditions: pooled result: one value given for 2 cell lines, strains, targets or settings
[35] = Antibacterial activity against Salmonella enterica serovar Virchow by broth microdilution method; type: functional, Salmonella enterica subsp. enterica serovar Virchow
Aeromonas veronii = assay: Antibacterial activity against Aeromonas veronii by broth microdilution method; type: functional
Escherichia coli [36] = assay: Antibacterial activity against enterotoxigenic Escherichia coli assessed as percent susceptible isolates by broth microdilution method; type: functional
Aeromonas caviae = assay: Antibacterial activity against Aeromonas caviae by broth microdilution method; type: functional
Escherichia coli [37] = assay: Antibacterial activity against Escherichia coli assessed as growth inhibition at 0.06 ug/ml by broth microdilution method; type: functional
Plesiomonas shigelloides [38] = assay: Antibacterial activity against Plesiomonas shigelloides assessed as percent susceptible isolates by broth microdilution method; type: functional
Escherichia coli [39] = assay: Antibacterial activity against Escherichia coli assessed as growth inhibition at 0.5 ug/ml by broth microdilution method; type: functional
Yersinia enterocolitica [40] = assay: Antibacterial activity against Yersinia enterocolitica by broth microdilution method; type: functional
Yersinia enterocolitica [41] = assay: Antibacterial activity against Yersinia enterocolitica assessed as percent resistant isolates by broth microdilution method; type: functional
[42] = Escherichia coli, read-out: MIC50
[43] = Escherichia coli, read-out: MIC90

CC1Sc2c(C(=O)O)c(=O)c3cc(F)c(N4CCNCC4)cc3n21 (stereo not drawn) [ULIFLOXACIN]
10%: inhibition at 0.004 µg/mL (Salmonella sp. [21])
2%: Activity (Aeromonas hydrophila)
4 ng/mL: MIC50 (Shigella dysenteriae [6]) | MIC50 (Aeromonas sobria) | MIC (Escherichia coli [33]) | MIC50 (Escherichia coli [33]) | MIC (Escherichia coli [33]; Escherichia coli, read-out: MIC) | MIC50 (Escherichia coli [33]; [42]) | MIC50 (Aeromonas veronii) | MIC50 (Aeromonas caviae)
100%: Activity (Vibrio cholerae) | inhibition at 0.12 µg/mL (Shigella sp. [7]) | Activity (Escherichia coli [8]) | Activity (Vibrio sp. [9]) | inhibition (INH) (Escherichia coli [20]) | Activity (Shigella dysenteriae [27]) | Activity (Shigella boydii) | Activity (Escherichia coli [36]) | Activity (Plesiomonas shigelloides [38])
99%: inhibition at 0.03 µg/mL (Shigella sp. [31])
30 ng/mL: MIC90 (Salmonella typhi) | MIC90 (Vibrio sp. [19]) | MIC90 (Salmonella paratyphi) | MIC90 [26] | MIC90 [29] | MIC90 [35]
95%: inhibition at 0.008 µg/mL (Shigella sp. [32])
87%: inhibition at 0.03 µg/mL (Aeromonas sp. [18])
4.8%: Activity (Escherichia coli [11])
98%: inhibition at 0.5 µg/mL (Aeromonas sp. [12])
16 ng/mL: MIC50 (Vibrio sp. [19]) | MIC90 (Yersinia enterocolitica [40])
0%: inhibition (INH) (Plesiomonas shigelloides [4]) | Activity (Escherichia coli [5]) | Activity (Shigella sonnei) | inhibition at 0.004 µg/mL (Campylobacter sp. [14]) | Activity (Plesiomonas shigelloides [15]) | Activity (Vibrio sp. [24]) | inhibition (INH) (Campylobacter sp. [28]) | Activity (Yersinia enterocolitica [41])
97%: Activity (Escherichia coli [1]) | inhibition at 2 µg/mL (Escherichia coli [30]) | inhibition at 0.06 µg/mL (Escherichia coli [37]) | inhibition at 0.5 µg/mL (Escherichia coli [39])
60 ng/mL: MIC90 (Aeromonas sobria) | MIC90 (Escherichia coli [23]) | MIC90 (Escherichia coli [23]; [43]) | MIC90 (Aeromonas veronii) | MIC90 (Aeromonas caviae)
84.4%: Activity (Campylobacter jejuni [34])
8 ng/mL: MIC50 (Salmonella typhi) | MIC50 (Escherichia coli [3]) | MIC90 (Escherichia coli [3]) | MIC50 (Escherichia coli [3]; [42]) | MIC90 (Escherichia coli [3]; [43]) | MIC90 (Shigella dysenteriae [6]) | MIC50 (Salmonella paratyphi) | MIC50 (Escherichia coli [23]) | MIC50 (Escherichia coli [23]; [42]) | MIC50 [26] | MIC50 [29] | MIC90 (Escherichia coli [33]) | MIC90 (Escherichia coli [33]; [43]) | MIC50 [35] | MIC (Yersinia enterocolitica [40]) | MIC50 (Yersinia enterocolitica [40])
83%: inhibition at 0.25 µg/mL (Campylobacter sp. [22])
1%: inhibition (INH) (Salmonella sp. [2])
14.7%: Activity (Campylobacter jejuni [17])
68%: inhibition at 0.008 µg/mL (Aeromonas sp. [10])
96%: inhibition at 0.016 µg/mL (Shigella sp. [13])
85%: inhibition at 2 µg/mL (Campylobacter sp. [16]) | inhibition at 0.016 µg/mL (Salmonella sp. [25])

Source: ChEMBL document CHEMBL1629662, “Antimicrobial activity of prulifloxacin tested against a worldwide collection of gastroenteritis-producing pathogens, including those causing traveler's diarrhea” (2009)
